Experimental data reported in patent US5202315A, “Cephalosporin compounds” (Lucky, Ltd., priority 1989, dated 1993).
≈ marks a conversion by molar mass, not a printed value.

Legend:
Experiment in all cases: Antibacterial activity, MIC
Assay type in all cases: cell-based
[1] = system: Streptococcus faecalis ATCC 29212; settings: Enterococcus faecalis, ATCC29212; ATCC 29212; agar two-fold dilution, 37° C., 20 hours; read-out: MIC
Procedure: (§1) Also, the in vitro antibacterial activity was determined by the by a two-fold dilution method as described below:
(§2) That is, the two-fold serial dilutions of the compound were made dispersed in Muller-Hinton agar medium. 2 μl of standard test strain which had the 10^7 CFU per ml was inoculated on the medium, and was incubated at 37° C. for 20 hours.

[2] = system: Shigella sonnei ATCC 11060; settings: ATCC11060, ATCC 11060, agar two-fold dilution, 37° C., 20 hours, read-out: MIC
Procedure: as §1, §2

[3] = system: Citrobacter freundii ATCC 8090; settings: ATCC8090, ATCC 8090, agar two-fold dilution, 37° C., 20 hours, read-out: MIC
Procedure: as §1, §2

[4] = system: Escherichia coli ATCC 25922; settings: ATCC25922, agar two-fold dilution, 37° C., 20 hours
Procedure: as §1, §2

[5] = system: Enterobacter cloacae ATCC 27508; settings: ATCC27508, ATCC 27508, agar two-fold dilution, 37° C., 20 hours, read-out: MIC
Procedure: as §1, §2

[6] = system: Proteus mirabilis ATCC 25933; settings: ATCC25933, ATCC 25933, agar two-fold dilution, 37° C., 20 hours, read-out: MIC
Procedure: as §1, §2

[7] = system: Escherichia coli ATCC 10536; settings: ATCC10536, agar two-fold dilution, 37° C., 20 hours
Procedure: as §1, §2

[8] = system: Staphylococcus aureus ATCC 6538p; settings: ATCC6538P, ATCC 6538p, agar two-fold dilution, 37° C., 20 hours, read-out: MIC
Procedure: as §1, §2

[9] = system: Providencia rettgeri ATCC 9250; settings: ATCC9250, agar two-fold dilution, 37° C., 20 hours
Procedure: as §1, §2

[10] = system: Acinetobacter calcoaceticus ATCC 15473; settings: ATCC15473, ATCC 15473, agar two-fold dilution, 37° C., 20 hours, read-out: MIC
Procedure: as §1, §2

[11] = system: Shigella flexneri ATCC 11836; settings: ATCC11836, agar two-fold dilution, 37° C., 20 hours
Procedure: as §1, §2

[12] = system: Staphylococcus aureus ATCC 10537; settings: ATCC10537, ATCC 10537, agar two-fold dilution, 37° C., 20 hours, read-out: MIC
Procedure: as §1, §2

[13] = system: Morganella morganii ATCC 8076h; settings: ATCC8076H, agar two-fold dilution, 37° C., 20 hours
Procedure: as §1, §2

[14] = system: Enterobacter aerogenes ATCC 29751; settings: Klebsiella aerogenes, ATCC29751; ATCC 29751; agar two-fold dilution, 37° C., 20 hours; read-out: MIC
Procedure: as §1, §2

[15] = system: Pseudomonas aeruginosa ATCC 25619; settings: ATCC25619, ATCC 25619, agar two-fold dilution, 37° C., 20 hours, read-out: MIC
Procedure: as §1, §2

[16] = system: Klebsiella pneumoniae ATCC 10031; settings: ATCC10031, ATCC 10031, agar two-fold dilution, 37° C., 20 hours, read-out: MIC
Procedure: as §1, §2

[17] = system: Pseudomonas aeruginosa ATCC 10145; settings: ATCC10145, ATCC 10145, agar two-fold dilution, 37° C., 20 hours, read-out: MIC
Procedure: as §1, §2

[18] = system: Bacillus cereus ATCC 11778; settings: ATCC11778, ATCC 11778, agar two-fold dilution, 37° C., 20 hours, read-out: MIC
Procedure: as §1, §2

[19] = system: Proteus vulgaris ATCC 6059; settings: ATCC6059, ATCC 6059, agar two-fold dilution, 37° C., 20 hours, read-out: MIC
Procedure: as §1, §2

[20] = system: Bacillus megaterium ATCC 9885; settings: Priestia megaterium, ATCC9885; ATCC 9885; agar two-fold dilution, 37° C., 20 hours; read-out: MIC
Procedure: as §1, §2

[21] = system: Serratia marcescens ATCC 27117; settings: ATCC27117, ATCC 27117, agar two-fold dilution, 37° C., 20 hours, read-out: MIC
Procedure: as §1, §2

[22] = system: Staphylococcus epidermidis ATCC 12228; settings: ATCC12228, ATCC 12228, agar two-fold dilution, 37° C., 20 hours, read-out: MIC
Procedure: as §1, §2

[23] = system: Pseudomonas aeruginosa ATCC 27853; settings: ATCC27853, ATCC 27853, agar two-fold dilution, 37° C., 20 hours, read-out: MIC
Procedure: as §1, §2

[24] = system: Salmonella typhimurium ATCC 14028; settings: Salmonella enterica; ATCC 14028; agar two-fold dilution, 37° C., 20 hours; read-out: MIC
Procedure: as §1, §2

[25] = system: Micrococcus luteus ATCC 9341; settings: ATCC9341, ATCC 9341, agar two-fold dilution, 37° C., 20 hours, read-out: MIC
Procedure: as §1, §2

| SMILES | MIC [1] | MIC [2] | MIC [3] | MIC [5] | MIC [6] | MIC [7] | MIC [8] | MIC [9] | MIC [10] | MIC [11] | MIC [12] | MIC [13] | MIC [14] | MIC [15] | MIC [17] | MIC [18] | MIC [19] | MIC [20] | MIC [21] | MIC [22] | further results |
| --- | --- | --- | --- | --- | --- | --- | --- | --- | --- | --- | --- | --- | --- | --- | --- | --- | --- | --- | --- | --- | --- |
| C=CC[n+]1c(N)cc(N)nc1SCC1=C(C(=O)[O-])N2C(=O)C(NC(=O)/C(=N\OC(C)(C)C(=O)O)c3csc(N)n3)C2SC1 (stereo not shown) [Compound I-3] | > 128 µg/mL | 0.063 µg/mL (≈ 0.097 µM) | 0.13 µg/mL (≈ 0.2 µM) | 0.031 µg/mL (≈ 0.0477 µM) | 0.031 µg/mL (≈ 0.0477 µM) | 0.13 µg/mL (≈ 0.2 µM) | 4 µg/mL (≈ 6.16 µM) | ≤ 0.008 µg/mL | 4 µg/mL (≈ 6.16 µM) | 0.031 µg/mL (≈ 0.0477 µM) | 2 µg/mL (≈ 3.08 µM) | ≤ 0.008 µg/mL | 2 µg/mL (≈ 3.08 µM) | 1 µg/mL (≈ 1.54 µM) | 2 µg/mL (≈ 3.08 µM) | 64 µg/mL (≈ 98.5 µM) | 0.031 µg/mL (≈ 0.0477 µM) | 0.5 µg/mL (≈ 0.77 µM) | 0.13 µg/mL (≈ 0.2 µM) | 2 µg/mL (≈ 3.08 µM) | MIC [4]: 0.13 µg/mL (≈ 0.2 µM); MIC [16]: 0.063 µg/mL (≈ 0.097 µM); MIC [23]: 2 µg/mL (≈ 3.08 µM); MIC [24]: 0.25 µg/mL (≈ 0.385 µM); MIC [25]: 0.25 µg/mL (≈ 0.385 µM) |
| C=CC[n+]1c(N)cc(N)nc1SCC1=C(C(=O)[O-])N2C(=O)C(NC(=O)/C(=N\OC(C)C(=O)O)c3csc(N)n3)C2SC1 (stereo not shown) [Compound I-6] | > 128 µg/mL | 0.063 µg/mL (≈ 0.0991 µM) | 0.063 µg/mL (≈ 0.0991 µM) | 0.016 µg/mL (≈ 0.0252 µM) | 0.031 µg/mL (≈ 0.0488 µM) | 0.063 µg/mL (≈ 0.0991 µM) | 4 µg/mL (≈ 6.29 µM) | ≤ 0.008 µg/mL | 4 µg/mL (≈ 6.29 µM) | 0.031 µg/mL (≈ 0.0488 µM) | 2 µg/mL (≈ 3.15 µM) | ≤ 0.008 µg/mL | 1 µg/mL (≈ 1.57 µM) | 2 µg/mL (≈ 3.15 µM) | 4 µg/mL (≈ 6.29 µM) | 128 µg/mL (≈ 201 µM) | 0.031 µg/mL (≈ 0.0488 µM) | 1 µg/mL (≈ 1.57 µM) | 0.13 µg/mL (≈ 0.204 µM) | 2 µg/mL (≈ 3.15 µM) | MIC [23]: 2 µg/mL (≈ 3.15 µM); MIC [24]: 0.25 µg/mL (≈ 0.393 µM); MIC [25]: 0.25 µg/mL (≈ 0.393 µM) |
| C=CC[n+]1c(N)cc(N)nc1SCC1=C(C(=O)[O-])N2C(=O)C(NC(=O)/C(=N\OCC(=O)O)c3csc(N)n3)C2SC1 (stereo not shown) [Compound I-9] | > 128 µg/mL | 0.063 µg/mL (≈ 0.101 µM) | 0.063 µg/mL (≈ 0.101 µM) | ≤ 0.008 µg/mL | 0.031 µg/mL (≈ 0.0499 µM) | 0.031 µg/mL (≈ 0.0499 µM) | 4 µg/mL (≈ 6.43 µM) | ≤ 0.008 µg/mL | 8 µg/mL (≈ 12.9 µM) | 0.031 µg/mL (≈ 0.0499 µM) | 2 µg/mL (≈ 3.22 µM) | ≤ 0.008 µg/mL | 1 µg/mL (≈ 1.61 µM) | 2 µg/mL (≈ 3.22 µM) | 16 µg/mL (≈ 25.7 µM) | 64 µg/mL (≈ 103 µM) | 0.031 µg/mL (≈ 0.0499 µM) | 0.25 µg/mL (≈ 0.402 µM) | 0.063 µg/mL (≈ 0.101 µM) | 1 µg/mL (≈ 1.61 µM) | MIC [4]: 0.031 µg/mL (≈ 0.0499 µM); MIC [16]: 0.031 µg/mL (≈ 0.0499 µM); MIC [23]: 4 µg/mL (≈ 6.43 µM); MIC [24]: 0.13 µg/mL (≈ 0.209 µM); MIC [25]: 0.25 µg/mL (≈ 0.402 µM) |
